Source: patent US4596875A, “Preparation of amides of 4-hydroxy-3-quinoline-carboxylic acid” (Roussel Uclaf, priority 1982, dated 1986)

How the values were obtained:
[1] = Anti-inflammatory activity: edema test provoked by carraghenin; format: in vivo; details: Rattus norvegicus; male rats 130 to 150 g, oral, simultaneous with 0.05 ml of 1% carraghenin in rear paw; paw volume at 2,4,6,8 and 24 hours; read-out: DA50 (dose which reduced the edema by 50%)
Experimental: The anti-inflammatory activity was determined by the edema test provoked by carraghenin in male rats weighing about 130 to 150 g which received 0.05 ml of sterile suspension of 1% carraghenin into the tibiotarsien articulation of the rear paw. Simultaneously the test product in a suspension of 0.25% carboxymethyl cellulose and 0.02% of Tween was orally administered. The volume of the paw was measured before the test and then 2,4,6,8 and 24 hours later. The intensity of inflammation was maximum at 4 to 6 hours after the injection of carraghenin and the differences in paw volume of controls and treated animals were evidence of anti-inflammatory action. The DA50 dose which is that which reduced the edema by 50% was 15 and 12 mg/kg for the products of Examples 2 and 10 respectively.

[2] = Analgesic activity: acetic acid-provoked stretching test based on Koster et al; format: in vivo; details: Mus musculus; mice, oral, 30 minutes before intraperitoneal acetic acid (1% solution, 0.01 ml/g); fasted 24 hours; 15 minute observation; read-out: DA50 (dose which diminished the number of stretchings by 50% as compared to the controls)
Experimental: The test was based on that of Koster et al [Fed. Proc., Vol. 1B (1959), p. 412] in which mice received an intraperitoneal injection of acetic acid to provoke repeated stretching and twisting movements which persist for more than 6 hours. An analgesic prevents or reduces this syndrome which is considered to be an exteriorization of a diffuse abdominal pain. A 1% solution of acetic acid in water was used and the dose […] the syndrome under these conditions was 0.01 ml/g or 100 mg/kg of acetic acid.
The test compound was orally administered to the mice 30 minutes before the acetic acid injection and the mice had been fasting for the previous 24 hours. The stretchings were counted for each mouse for a 15 minute observation period after the acetic acid injection and the dose which diminished the number of stretchings by 50% as compared to the controls (DA50) was 1.2 and 0.3 mg/kg for the compounds of Example 2 and 10 respectively.

## CC(O)c1nc2c(C(F)(F)F)cccc2c(O)c1C(=O)Nc1nccs1 (stereo not shown) [Example 2, 4-hydroxy-2-(1-hydroxyethyl)-N-(2-thiazolyl)-8-trifluoromethyl-3-quinoline-carboxamide]
[1]
  ED50: 15 mg/kg
[2]
  ED50: 1.2 mg/kg

## CCC(O)c1nc2c(C(F)(F)F)cccc2c(O)c1C(=O)Nc1nccs1 (stereo not shown) [Example 10, 4-hydroxy-2-(1-hydroxy-propyl)-N-(2-thiazolyl)-8-trifluoromethyl-3-quinoline-carboxamide]
[1]
  ED50: 12 mg/kg
[2]
  ED50: 0.3 mg/kg
